22 molecules from patent US11446287B2, “Compounds and methods for EP300 or CBP modulation and indications therefor” (Opna Immuno-Oncology SA, priority 2019, dated 2022) can be followed below.

SMILES strings stand for the structures.

This experiment has as its target T1, Recombinant human CBP containing the bromodomain (CBP-BD (1043-1159)) (Homo sapiens, UniProt Q92793).
T1 construct: Recombinant human CBP bromodomain (CBP-BD (1043-1159)); made in house; host or cells: E. coli BL21-CodonPlus (DE3), modified pET vector
Nature of the experiment: CBP Alphascreen binding assay. Conditions: read-out: CREBBP (CBP) IC50. The method in brief: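 Buffer: 50 mM HEPES pH 7.5, 50 mM NaCl, 0.01% BSA, 0.01% Triton X-100, 2 mM DTT. The signal was normalised to plate controls and fitted with a four-parameter curve to give IC50.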
On the technique in general: Alpha assays give light when donor and acceptor beads are brought close together.

T1 sequence (Q92793 1081-1197): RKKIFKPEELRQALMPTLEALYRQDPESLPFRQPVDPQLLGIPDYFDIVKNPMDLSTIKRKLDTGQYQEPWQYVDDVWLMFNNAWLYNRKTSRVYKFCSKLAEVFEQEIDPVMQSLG

What is called IC50 is the concentration that gives 50% inhibition. For `Cc1noc(C)c1-c1cnc2c(c1)c(-c1ccc(C(=O)O)cc1)cn2C(C)c1ncccn1` (stereo not shown) [P-0013, 4-(5-(3,5-dimethylisoxazol-4-yl)-1-(1-(pyrimidin-2-yl)ethyl)-1H-pyrrolo[2,3-b]pyridin-3-yl)benzoic acid], the IC50 lay within 0.1 to 1000 nM. As for `Cc1noc(C)c1-c1cnc2c(c1)c(-c1ccc(C(=O)O)cc1)cn2C(C)c1ccc(F)cn1` (stereo not shown) [P-0014, 4-(5-(3,5-dimethylisoxazol-4-yl)-1-(1-(5-fluoropyridin-2-yl)ethyl)-1H-pyrrolo[2,3-b]pyridin-3-yl)benzoic acid], the IC50 is 0.1 to 1000 nM.

Turning to `Cc1noc(C)c1-c1cnc2c(c1)c(-c1cccc(C(=O)O)c1)cn2C(c1ccccn1)C1CCCC1` (stereo not shown) [P-0015, 3-(1-(cyclopentyl(pyridin-2-yl)methyl)-5-(3,5-dimethylisoxazol-4-yl)-1H-pyrrolo[2,3-b]pyridin-3-yl)benzoic acid], the IC50 fell in the range of 0.1 to 1000 nM. `Cc1noc(C)c1-c1cnc2c(c1)c(-c1ccc(F)c(C(=O)O)c1)cn2C(c1ccccn1)C1CCCC1` (stereo not shown) [P-0016, 5-(1-(cyclopentyl(pyridin-2-yl)methyl)-5-(3,5-dimethylisoxazol-4-yl)-1H-pyrrolo[2,3-b]pyridin-3-yl)-2-fluorobenzoic acid]: the concentration for half-maximal inhibition (IC50) lay in the range of 0.1 to 1000 nM. As to `Cc1noc(C)c1-c1cnc2c(c1)c(-c1ccnc(C(=O)O)c1)cn2C(c1ccccn1)C1CCCC1` (stereo not shown) [P-0017, 4-(1-(cyclopentyl(pyridin-2-yl)methyl)-5-(3,5-dimethylisoxazol-4-yl)-1H-pyrrolo[2,3-b]pyridin-3-yl)picolinic acid], the IC50 was in the range of 0.1 to 1000 nM. As for `Cc1noc(C)c1-c1cnc2c(c1)c(-c1cccc(CC(=O)O)c1)cn2C(c1ccccn1)C1CCCC1` (stereo not shown) [P-0018, 2-(3-(1-(cyclopentyl(pyridin-2-yl)methyl)-5-(3,5-dimethylisoxazol-4-yl)-1H-pyrrolo[2,3-b]pyridin-3-yl)phenyl)acetic acid], the IC50 lay within 0.1 to 1000 nM. The same measure for `Cc1noc(C)c1-c1cnc2c(c1)c(-c1ccncc1)cn2C(c1ccccn1)C1CCCC1` (stereo not shown) [P-0019, 4-(1-(cyclopentyl(pyridin-2-yl)methyl)-3-(pyridin-4-yl)-1H-pyrrolo[2,3-b]pyridin-5-yl)-3,5-dimethylisoxazole]: 1000 to 8000 nM; for `Cc1noc(C)c1-c1cnc2c(c1)c(-c1ccc(C(=O)O)cc1OC1CC1)cn2[C@@H](C)c1ccccn1` [P-0170, (S)-3-cyclopropoxy-4-(5-(3,5-dimethylisoxazol-4-yl)-1-(1-(pyridin-2-yl)ethyl)-1H-pyrrolo[2,3-b]pyridin-3-yl)benzoic acid]: 0.1 to 1000 nM; for `Cc1noc(C)c1-c1cnc2c(-c3ccc(C(=O)O)cc3C#CC3CC3)cn([C@@H](C)c3ccccn3)c2c1` [P-0171, (S)-3-(cyclopropylethynyl)-4-(6-(3,5-dimethylisoxazol-4-yl)-1-(1-(pyridin-2-yl)ethyl)-1H-pyrrolo[3,2-b]pyridin-3-yl)benzoic acid]: 0.1 to 1000 nM. The same measure for `COc1ccc(C(=O)O)cc1-c1cn(C(C)(c2ccccn2)c2ccccn2)c2cc(-c3c(C)noc3C)cnc12` [P-0172, 3-(1-(1,1-di(pyridin-2-yl)ethyl)-6-(3,5-dimethylisoxazol-4-yl)-1H-pyrrolo[3,2-b]pyridin-3-yl)-4-methoxybenzoic acid]: 1000 to 8000 nM; for `CCOc1cc(C(=O)O)cc(OCC)c1-n1cc(-c2cccnc2)c2ncc(-c3c(C)noc3C)cc21` [P-0173, 4-(6-(3,5-dimethylisoxazol-4-yl)-3-(pyridin-3-yl)-1H-pyrrolo[3,2-b]pyridin-1-yl)-3,5-diethoxybenzoic acid]: 0.1 to 1000 nM.

Regarding `CCOc1cc(C(=O)O)cc(OC(C)C)c1-c1cn([C@@H](C)c2ccccn2)c2ncc(-c3c(C)noc3C)cc12` [P-0174, (S)-4-(5-(3,5-dimethylisoxazol-4-yl)-1-(1-(pyridin-2-yl)ethyl)-1H-pyrrolo[2,3-b]pyridin-3-yl)-3-ethoxy-5-isopropoxybenzoic acid], the half-inhibitory concentration (IC50) was in the range of 0.1 to 1000 nM. The figure for `Cc1noc(C)c1-c1cnc2c(c1)c(-c1ccc(C(=O)O)cc1OC(F)(F)F)cn2-c1cccnc1` [P-0175, 4-(5-(3,5-dimethylisoxazol-4-yl)-1-(pyridin-3-yl)-1H-pyrrolo[2,3-b]pyridin-3-yl)-3-(trifluoromethoxy)benzoic acid] is 0.1 to 1000 nM; for `COc1ccncc1-n1cc(-c2ccc(C(=O)O)cc2OC(F)(F)F)c2cc(-c3c(C)noc3C)cnc21` [P-0176, 4-(5-(3,5-dimethylisoxazol-4-yl)-1-(4-methoxypyridin-3-yl)-1H-pyrrolo[2,3-b]pyridin-3-yl)-3-(trifluoromethoxy)benzoic acid] it is 0.1 to 1000 nM; for `Cc1noc(C)c1-c1cnc2c(c1)c(-c1ccc(C(=O)O)cc1OC(F)(F)F)cn2-c1cnccc1Cl` [P-0177, 4-(1-(4-chloropyridin-3-yl)-5-(3,5-dimethylisoxazol-4-yl)-1H-pyrrolo[2,3-b]pyridin-3-yl)-3-(trifluoromethoxy)benzoic acid] it is 0.1 to 1000 nM.

Turning to `Cc1noc(C)c1-c1cnc2c(c1)c(-c1ccc(C(=O)O)cc1C#CC1CC1)cn2[C@@H](C)c1ccccn1` [P-0178, (S)-3-(cyclopropylethynyl)-4-(5-(3,5-dimethylisoxazol-4-yl)-1-(1-(pyridin-2-yl)ethyl)-1H-pyrrolo[2,3-b]pyridin-3-yl)benzoic acid], the half-maximal inhibitory concentration (IC50) was in the range of 1000 to 8000 nM.

With `Cc1noc(C)c1-c1cnc2c(c1)c(-c1ccc(C(=O)O)cc1OC1CCC1)cn2[C@@H](C)c1ccccn1` [P-0179, (S)-3-cyclobutoxy-4-(5-(3,5-dimethylisoxazol-4-yl)-1-(1-(pyridin-2-yl)ethyl)-1H-pyrrolo[2,3-b]pyridin-3-yl)benzoic acid], the IC50 fell in the range of 0.1 to 1000 nM. For the molecule `Cc1noc(C)c1-c1cnc2c(c1)c(-c1ccc(C(=O)O)cc1OC(F)(F)F)cn2-c1ncccc1C(F)(F)F` [P-0180, 4-(5-(3,5-dimethylisoxazol-4-yl)-1-(3-(trifluoromethyl)pyridin-2-yl)-1H-pyrrolo[2,3-b]pyridin-3-yl)-3-(trifluoromethoxy)benzoic acid], the IC50 was 0.1 to 1000 nM. Take `Cc1noc(C)c1-c1cnc2c(c1)c(-c1ccc(C(=O)O)cc1C1CC1)cn2[C@@H](C)c1ccccn1` [P-0181, (S)-3-cyclopropyl-4-(5-(3,5-dimethylisoxazol-4-yl)-1-(1-(pyridin-2-yl)ethyl)-1H-pyrrolo[2,3-b]pyridin-3-yl)benzoic acid]: the IC50 was in the range of 0.1 to 1000 nM.

Turning to `Cc1noc(C)c1-c1cnc2c(c1)c(-c1ccc(C(=O)O)cc1OC(F)(F)F)cn2-c1ncccc1F` [P-0182, 4-(5-(3,5-dimethylisoxazol-4-yl)-1-(3-fluoropyridin-2-yl)-1H-pyrrolo[2,3-b]pyridin-3-yl)-3-(trifluoromethoxy)benzoic acid], the IC50 lay within 0.1 to 1000 nM. In the case of `Cc1noc(C)c1-c1cnc2c(c1)c(-c1ccc(C(=O)O)cc1OC(F)(F)F)cn2-c1ncccc1Cl` [P-0183, 4-(1-(3-chloropyridin-2-yl)-5-(3,5-dimethylisoxazol-4-yl)-1H-pyrrolo[2,3-b]pyridin-3-yl)-3-(trifluoromethoxy)benzoic acid], the IC50 lay within 0.1 to 1000 nM. Consider `CCOc1cc(C(=O)O)cc(OCC)c1-n1cc(-c2ccc(F)cc2)c2ncc(-c3c(C)noc3C)cc21` [P-0184, 4-(6-(3,5-dimethylisoxazol-4-yl)-3-(4-fluorophenyl)-1H-pyrrolo[3,2-b]pyridin-1-yl)-3,5-diethoxybenzoic acid], for which the IC50 is 0.1 to 1000 nM.
